Test results published in patent USRE48097E1, “Cephem compounds, their production and use” (priority 2015, dated 2020).
Values after ≈ are worked out from the molar mass of the structure shown. Like-named read-outs stand apart in the source and are kept apart here. Blank lines part the entries; values can stand above or below the compound they belong to.

Tests used:
Assay type in all cases: cell-based
[1] = system: S. pneumoniae ATCC 6301; test: MIC against S. pneumoniae ATCC 6301; settings: Table 2, S. pneumoniae ATCC 6301, Pen S
Excerpt: (§1) Without limitation, the present cephem compounds alone, or in combination with one or more β-lactamase inhibitors, may provide improved antibacterial efficacy, particularly in antibiotic-resistant bacterial strains. It is believed that the present compounds may be structurally different from known compounds and, as a result, may be more basic in nature. It is an advantage that the present compounds may extend the spectrum of effective bacterial compounds, particularly against previously-resistant bacteria (e.g. ESKAPE organisms), and/or gram negative bacteria, without significant side effects. In a preferred embodiment, the present cephem compound may comprise reference compound ceftazidime, which may be used alone, or in combination with one or more β-lactamase inhibitors, such as NXL-104. As shown, the foregoing composition was tested for minimum inhibitory concentration (MIC, μg/mL) against bacteria listed in Tables 2-3.

[2] = system: E. cloacae 2704; test: MIC against E. cloacae 2704; settings: Table 2, E. cloacae 2704, P99
Excerpt: as §1

[3] = system: S. aureus 3136; test: MIC against S. aureus 3136; settings: Table 2, S. aureus 3136, MSSA
Excerpt: as §1

[4] = system: K. baumanii 4095; test: MIC against K. baumanii 4095; settings: Table 2, K. baumanii 4095, OXA-48
Excerpt: as §1

[5] = system: C. freundii 579; test: MIC against C. freundii 579; settings: Table 2, C. freundii 579, Caz R, IMP S
Excerpt: as §1

[6] = system: S. pneumoniae 2493; test: MIC against S. pneumoniae 2493; settings: Table 2, S. pneumoniae 2493, Pen R
Excerpt: as §1

[7] = system: E. coli 2668; test: MIC against E. coli 2668; settings: Table 2, E. coli 2668, OXA-48
Excerpt: as §1

[8] = system: C. freundii 2487; test: MIC against C. freundii 2487; settings: Table 2, C. freundii 2487, Caz R, IMP S
Excerpt: as §1

[9] = system: E. cloacae 2710; test: MIC against E. cloacae 2710; settings: Table 3, E. cloacae 2710, KPC-3, VIM-1
Protocol: (§2) As shown, the foregoing composition was tested for minimum inhibitory concentration (MIC, μg/mL) against bacteria listed in Tables 2-3.

[10] = system: E. coli 4080; test: MIC against E. coli 4080; settings: Table 2, E. coli 4080, TEM-10
Excerpt: as §1

[11] = system: S. aureus 3147; test: MIC against S. aureus 3147; settings: Table 2, S. aureus 3147, MSSA
Excerpt: as §1

[12] = system: E. cloacae 566; test: MIC against E. cloacae 566; settings: Table 2, E. cloacae 566, Caz R, IMP S
Excerpt: as §1

[13] = system: E. coli 4102; test: MIC against E. coli 4102; settings: Table 2, E. coli 4102, CTX-M-14
Excerpt: as §1

[14] = system: K. pneumoniae 2713; test: MIC against K. pneumoniae 2713; settings: Table 3, K. pneumoniae 2713, KPC-3, VIM-1
Protocol: as §2

[15] = system: S. pneumoniae 2403; test: MIC against S. pneumoniae 2403; settings: Table 2, S. pneumoniae 2403, Pen S
Excerpt: as §1

[16] = system: C. freundii 580; test: MIC against C. freundii 580; settings: Table 2, C. freundii 580, Caz R, IMP S
Excerpt: as §1

[17] = system: K. pneumoniae 4106; test: MIC against K. pneumoniae 4106; settings: K. pneumoniae 4106, KPC-3, TEM-1, SHV-12, SHV-141
Protocol: as §2

[18] = system: E. cloacae 2689; test: MIC against E. cloacae 2689; settings: Table 3, E. cloacae 2689, KPC-2
Protocol: as §2

[19] = system: K. baumanii 4091; test: MIC against K. baumanii 4091; settings: Table 2, K. baumanii 4091, OXA-23
Excerpt: as §1

[20] = system: K. pneumoniae 4088; test: MIC against K. pneumoniae 4088; settings: Table 3, K. pneumoniae 4088, KPC-3
Protocol: as §2

[21] = system: S. pneumoniae 2405; test: MIC against S. pneumoniae 2405; settings: Table 2, S. pneumoniae 2405, Pen S
Excerpt: as §1

[22] = system: K. pneumoniae 4107; test: MIC against K. pneumoniae 4107; settings: K. pneumoniae 4107, KPC-2, TEM-1, SHV-11
Protocol: as §2

[23] = system: E. coli 2666; test: MIC against E. coli 2666; settings: Table 3, E. coli 2666, KPC-2
Protocol: as §2

[24] = system: S. pneumoniae 2407; test: MIC against S. pneumoniae 2407; settings: Table 2, S. pneumoniae 2407, Pen S
Excerpt: as §1

[25] = Streptococcus pneumoniae, ATCC6301, alone, read-out: MIC
[26] = Enterobacter cloacae, alone, read-out: MIC
[27] = Staphylococcus aureus, alone, read-out: MIC
[28] = Citrobacter freundii, alone, read-out: MIC
[29] = Streptococcus pneumoniae, alone, read-out: MIC
[30] = Escherichia coli, alone, read-out: MIC
[31] = Klebsiella pneumoniae, alone, read-out: MIC
[32] = Klebsiella pneumoniae, 4106, Table 2, alone, read-out: MIC
[33] = Klebsiella pneumoniae, 4106, Table 3, alone, read-out: MIC
[34] = Table 2, in combination with NXL-104
[35] = Table 3, in combination with NXL-104
[36] = Klebsiella pneumoniae, 4107, Table 2, alone, read-out: MIC
[37] = Klebsiella pneumoniae, 4107, Table 3, alone, read-out: MIC

MIC [1, 25]: ≤ 0.06 µg/mL
MIC ([1]; in combination with NXL-104): ≤0.06 µg/mL
MIC [2, 26]: 4 µg/mL
MIC ([2]; in combination with NXL-104): 1.00 µg/mL
MIC [3, 27]: 2 µg/mL
MIC ([3]; in combination with NXL-104): 2.00 µg/mL
MIC ([4]; alone, read-out: MIC): 0.25 µg/mL
MIC ([4]; in combination with NXL-104): 0.25 µg/mL
MIC [5, 28]: 2 µg/mL
MIC ([5]; in combination with NXL-104): 0.50 µg/mL
MIC [6, 29]: 8 µg/mL
MIC ([6]; in combination with NXL-104): 8.00 µg/mL
MIC [7, 30]: 0.5 µg/mL
MIC ([7]; in combination with NXL-104): 0.25 µg/mL
MIC [8, 28]: 8 µg/mL
MIC ([8]; in combination with NXL-104): 1.00 µg/mL
MIC [9, 26]: > 32 µg/mL
MIC ([9]; in combination with NXL-104): >32 µg/mL
MIC [10, 30]: 8 µg/mL
MIC ([10]; in combination with NXL-104): 1.00 µg/mL
MIC [11, 27]: 2 µg/mL
MIC ([11]; in combination with NXL-104): 2.00 µg/mL
MIC [12, 26]: 0.5 µg/mL
MIC ([12]; in combination with NXL-104): 0.25 µg/mL
MIC [13, 30]: 1 µg/mL
MIC ([13]; in combination with NXL-104): 0.12 µg/mL
MIC [14, 31]: > 32 µg/mL
MIC ([14]; in combination with NXL-104): 2 µg/mL
MIC [15, 29]: ≤ 0.06 µg/mL
MIC ([15]; in combination with NXL-104): ≤0.06 µg/mL
MIC [16, 28]: 4 µg/mL
MIC ([16]; in combination with NXL-104): 0.50 µg/mL
MIC [17, 32]: 8 µg/mL (≈ 11.3 µM)
MIC [17, 33]: > 32 µg/mL
MIC [17, 34]: 2.00 µg/mL
MIC [17, 35]: 4 µg/mL
MIC [18, 26]: 8 µg/mL (≈ 11.3 µM)
MIC ([18]; in combination with NXL-104): 0.5 µg/mL
MIC ([19]; alone, read-out: MIC): 8 µg/mL
MIC ([19]; in combination with NXL-104): 2.00 µg/mL
MIC [20, 31]: > 32 µg/mL
MIC ([20]; in combination with NXL-104): 4 µg/mL
MIC [21, 29]: 0.12 µg/mL
MIC ([21]; in combination with NXL-104): ≤0.06 µg/mL
MIC [22, 36]: 16 µg/mL (≈ 22.6 µM)
MIC [22, 37]: > 32 µg/mL
MIC [22, 34]: 4.00 µg/mL
MIC [22, 35]: 2 µg/mL
MIC [23, 30]: 32 µg/mL (≈ 45.1 µM)
MIC ([23]; in combination with NXL-104): 2 µg/mL
MIC [24, 29]: 0.12 µg/mL
MIC ([24]; in combination with NXL-104): 0.12 µg/mL
SMILES: CC(C)(O/N=C(\C(=O)N[C@@H]1C(=O)N2C(C(=O)[O-])=C(C[n+]3ccc4n3CCN4Cc3ccc(C(=N)N)cc3)CS[C@H]12)c1csc(N)n1)C(=O)O [Example 2, (6R,7R)-7-{[(2Z)-2-(2-Amino-1,3-thiazol-4-yl)-2-{[(2-carboxypropan-2-yl)oxy]imino}acetyl]amino}-3-{[1-(4-carbamimidoylbenzyl)-2,3-dihydro-1H-imidazo[1,2-b]pyrazol-5-ium-5-yl]methyl}-8-oxo-5-thia-1-azabicyclo[4.2.0]oct-2-ene-2-carboxylate]

MIC [1, 25]: ≤ 0.06 µg/mL
MIC ([1]; in combination with NXL-104): ≤0.06 µg/mL
MIC [2, 26]: 16 µg/mL
MIC ([2]; in combination with NXL-104): 2.00 µg/mL
MIC [3, 27]: 2 µg/mL
MIC ([3]; in combination with NXL-104): 2.00 µg/mL
MIC ([4]; alone, read-out: MIC): 0.25 µg/mL
MIC ([4]; in combination with NXL-104): 0.25 µg/mL
MIC [5, 28]: 4 µg/mL
MIC ([5]; in combination with NXL-104): 0.25 µg/mL
MIC [6, 29]: 2 µg/mL
MIC ([6]; in combination with NXL-104): 2.00 µg/mL
MIC [7, 30]: 1 µg/mL
MIC ([7]; in combination with NXL-104): ≤0.06 µg/mL
MIC [8, 28]: 32 µg/mL
MIC ([8]; in combination with NXL-104): 1.00 µg/mL
MIC [9, 26]: > 32 µg/mL
MIC ([9]; in combination with NXL-104): >32 µg/mL
MIC [10, 30]: 16 µg/mL
MIC ([10]; in combination with NXL-104): 0.50 µg/mL
MIC [11, 27]: 2 µg/mL
MIC ([11]; in combination with NXL-104): 2.00 µg/mL
MIC [12, 26]: 2 µg/mL
MIC ([12]; in combination with NXL-104): 0.50 µg/mL
MIC [13, 30]: 1 µg/mL
MIC ([13]; in combination with NXL-104): ≤0.06 µg/mL
MIC [14, 31]: > 32 µg/mL
MIC ([14]; in combination with NXL-104): 2 µg/mL
MIC [15, 29]: ≤ 0.06 µg/mL
MIC ([15]; in combination with NXL-104): ≤0.06 µg/mL
MIC [16, 28]: 8 µg/mL
MIC ([16]; in combination with NXL-104): 0.25 µg/mL
MIC [17, 32]: 16 µg/mL (≈ 22.1 µM)
MIC [17, 33]: 32 µg/mL (≈ 44.2 µM)
MIC [17, 34]: 1.00 µg/mL
MIC [17, 35]: 2 µg/mL
MIC [18, 26]: 16 µg/mL (≈ 22.1 µM)
MIC ([18]; in combination with NXL-104): 0.5 µg/mL
MIC ([19]; alone, read-out: MIC): 8 µg/mL
MIC ([19]; in combination with NXL-104): 2.00 µg/mL
MIC [20, 31]: 32 µg/mL (≈ 44.2 µM)
MIC ([20]; in combination with NXL-104): 2 µg/mL
MIC [21, 29]: ≤ 0.06 µg/mL
MIC ([21]; in combination with NXL-104): ≤0.06 µg/mL
MIC [22, 36]: 32 µg/mL (≈ 44.2 µM)
MIC [22, 37]: 16 µg/mL (≈ 22.1 µM)
MIC [22, 34]: 2.00 µg/mL
MIC [22, 35]: 1 µg/mL
MIC [23, 30]: 16 µg/mL (≈ 22.1 µM)
MIC ([23]; in combination with NXL-104): 1 µg/mL
MIC [24, 29]: ≤ 0.06 µg/mL
MIC ([24]; in combination with NXL-104): ≤0.06 µg/mL
SMILES: CC(C)(O/N=C(\C(=O)N[C@@H]1C(=O)N2C(C(=O)[O-])=C(C[n+]3ccc4c(ccn4Cc4cc(C(=N)N)cs4)c3)CS[C@H]12)c1csc(N)n1)C(=O)O [Example 5, (6R,7R)-7-{[(2Z)-2-(2-Amino-1,3-thiazol-4-yl)-2-{[(2-carboxypropan-2-yl)oxy]imino}acetyl]amino}-3-({1-[(4-carbamimidoylthiophen-2-yl)methyl]-1H-pyrrolo[3,2-c]pyridin-5-ium-5-yl}methyl)-8-oxo-5-thia-1-azabicyclo[4.2.0]oct-2-ene-2-carboxylate]
